According to US11007269B2, “P53 degradation inducing molecule and pharmaceutical composition” (Tokyo University of Science Foundation, priority 2016, dated 2021):

System: senescence-associated acidic β-galactosidase (SA-β-gal) inducing TIG3 cells
Test: FACS analysis of SA-β-gal in doxorubicin senescence-induced TIG3 cells (anti-aging action)
Type: cell-based, human
Settings: 50 μM added after doxorubicin (150 nM), 48 hours
Description: In Example 5, an anti-aging action in a senescence-associated acidic β-galactosidase (SA-β-gal) inducing TIG3 cells (human embryonic fibroblast) in which TIBC-CANDDY_MLN had been added was evaluated by FACS analysis.
TIG3 cells as normal cells were seeded in a 24-well plate at a cell density of 8×10^4 cells/well, and then cultured under conditions of 37° C. and 5 vol % CO2 for 16 hours.
After 16 hours from cell seeding, doxorubicin was added to each well at 150 nM/well to induce cellular senescence. As a medium, a serum-free medium (37° C.) in which 1 mass % L-glutamine solution (Sigma-Aldrich) was added to D-MEM (high D-glucose, phenol red, sodium pyruvate (Wako Pure Chemical Industries, Ltd.)) was used. It is noted that the L-glutamine solution was added immediately before use. After the addition of doxorubicin, culture was performed under conditions of 37° C. and 5 vol % CO2 for 24 hours.
After 24 hours from induction of senescence, TIBC-CANDDY_MLN was added to TIG3 cells as follows. As a medium, a serum-free medium (37° C.) in which 1 mass % L-glutamine solution (Sigma-Aldrich) was added to D-MEM (high D-glucose, phenol red, sodium pyruvate (Wako Pure Chemical Industries, Ltd.)) was used. It is noted that the L-glutamine solution was added immediately before use. A DMSO solution containing TIBC-CANDDY_MLN was mixed with the medium so that the concentration of DMSO was 1 vol %, and added to each well at 500 μL/well, and cultured under conditions of 37° C. and 5 vol % CO2 for 48 hours. As a control, DMSO was used.
For quantification of SA-β-gal as a senescence marker, a commercially available kit (Cellular Senescence Detection Kit-SPiDER-βGal (DOJINDO LABORATORIES)) was used. […]
A BD FACSCanto™ II (BD Biosciences) was used for flow cytometry to detect SA-β-gal labeled with FITC. […] A histogram of the FITC strength was created by an analysis software FlowJo™ (TOMY Digital Biology Co., Ltd.), and the senescence suppressing action by TIBC-CANDDY_MLN was evaluated from a shift in the histogram.

CC(C)C[C@H](NC(=O)CNC(=O)c1cc(Cl)ccc1Cl)C(=O)NCCCCCCC(=O)Nc1ccc(C(=O)/C=C/c2ccc(I)cc2)cc1 [TIBC-CANDDY_MLN]
cellular senescence suppressing action: about 80% | shift to SA-β-gal (senescence marker) positive (FACS histogram): hardly observed
